Measured values published in PMC9495681, “Examining Topoisomers of a Snake-Venom-Derived Peptide for Improved Antimicrobial and Antitumoral Properties” (Biomedicines, 2022).
Converted amounts (≈) assume the structure as drawn. Square brackets hold non-standard residues; d marks the D form. Peptide text beside a SMILES is read from it.

Experiments:
[1] = tested on: Pseudomonas sp. (ATCC15915); test: Minimal inhibitory concentration (MIC), broth microdilution; format: cell-based; details: Mueller Hinton Broth, 5 × 10^5 CFU/mL, 0.04% BSA and 0.002% acetic acid, 20–22 h at 37 °C, duplicate
Procedure: (§1) Assays were performed on three Gram-negative bacteria: E. coli (BW25113, Coli Genetic Stock Center), A. baumannii (ATCC 15308, CECT, Valencia, Spain), and Pseudomonas sp. (ATCC15915, CECT). The minimal inhibitory concentration (MIC) of each peptide was determined as described by Wiegand et al.. Peptide stocks in water were added to polypropylene 96-well plates (Greiner, Frickenhausen, Germany) and serially diluted from 100 to 0.2 μM. Fresh bacteria were incubated at 37 °C in Mueller Hinton Broth (MHB, Condalab, Torrejón de Ardoz, Spain) up to exponential growth and diluted to a final inoculum of 5 × 10^5 CFU/mL. BSA and acetic acid at 0.04% (w/v) and 0.002% (v/v) final concentration, respectively, were added to avoid peptide self-aggregation. Plates were incubated for 20–22 h at 37 °C. Each peptide was tested in duplicate. MIC values were the lowest peptide concentration where bacterial growth was not detected.

[2] = tested on: A. baumannii (ATCC 15308); test: as above; format: cell-based; details: Mueller Hinton Broth, 5 × 10^5 CFU/mL, 0.04% BSA and 0.002% acetic acid, 20–22 h at 37 °C, duplicate
Procedure: as §1

E. coli (BW25113) = test: as above; format: cell-based; details: Mueller Hinton Broth, 5 × 10^5 CFU/mL, 0.04% BSA and 0.002% acetic acid, 20–22 h at 37 °C, duplicate
Procedure: as §1

1BR3G human fibroblasts = test: Peptide cytotoxicity (Cell Titer Blue viability); format: cell-based; details: 24 h treatment, medium with 2% FBS, Cell Titer Blue fluorescence, triplicate
Description: Human HeLa S3 (cervix epithelial carcinoma), leukemia Jurkat E6.1 (T-cell lineage), U937 (histiocytic lymphoma), THP-1 (acute monocytic leukemia), and 1BR3G human fibroblasts were obtained from the Cell Lines Repository of the Institut Municipal d’Investigació Medica (Barcelona, Spain). BxPC3 (pancreas adenocarcinoma), A549 (lung carcinoma), SH-Sy5Y (neuroblastoma), Panc1 (epithelioid carcinoma), 786-O (renal cell adenocarcinoma), and HT29 (colorectal adenocarcinoma) were obtained from the Integrative Biomedical Materials and Nanomedicine lab at UPF (Barcelona, Spain). HeLa S3, Jurkat E6.1, U937, THP-1, Panc1, and 786-O were cultured in Roswell Park Memorial Institute medium (RPMI) supplemented with 10% fetal bovine serum (FBS) and 1% penicillin/streptomycin solution and maintained at 37 °C in a humidified atmosphere with 5% of CO2. 1BR3G, BxPC3, A549, and HT29 were cultured in Dulbecco’s Modified Eagle’s Medium (DMEM) supplemented with 10% FBS and 1% penicillin/streptomycin solution and maintained at 37 °C in a humidified atmosphere with 5% of CO2. SH-Sy5Y was cultured in DMEM supplemented with 15% FBS and 1% penicillin/streptomycin and maintained at 37 °C in a humidified atmosphere with 5% of CO2. Cultures were maintained at 10^5–10^6 cell/mL densities. For 1BR3G human fibroblasts, BxPC3, A549, SH-Sy5Y, Panc1, 786-O, and HT29 were split every time they reached 80–90% of confluence after harvesting with PBS and trypsin.
About 60,000 cells were added to different microfuge tubes containing 2-fold serial dilution of the peptide, with a final concentration in the range between 0.1–100 μM in RPMI containing 2% of FBS. After 30 min incubation at 37 °C and 5% of CO2, […] of medium containing approximately 10,000 treated cells were transferred to a 96-well plate. Then, 15 μL of Cell Titer Blue dye (Promega, Madison, WI, USA) was added, and plates were reincubated for 24 h. Fluorescence was read at 4 and 24 h after dye addition in a Synergy HTX (BioTek, Winooski, VT, USA) reader, with λexc = 560 nm and λem = 620 nm. In the case of adherent cultures, 5000 cells/well were seeded in 96-well plates. After 24 h incubation at 37 °C and 5% of CO2, the medium was removed, and a new medium with 2% of FBS containing the various 2-fold dilution of the peptides was added. After a further 30 min, 15 μL of Cell Titer Blue dye was added to each well, and the measurement was done as above. Relative viability was calculated relative to a cell with only 2% FBS in the corresponding medium as a control (100% viability). All assays were conducted in triplicate.

Serum stability = format: in vitro ADME; details: 0.5 mL each of human serum (Sigma-Aldrich) and peptide (1 mM in water), 37 °C with stirring, trichloroacetic acid treatment, HPLC / LC-MS; for remaining at 24 h, 0.5 mM: 24 h (1440 min), read-out: Peptide remaining in human serum after 24 h
Procedure: Briefly, 0.5 mL each of human serum (Sigma-Aldrich, St. Louis, MO, USA) and peptide (1 mM in water) were mixed and incubated for 24 h at 37 °C with stirring. Aliquots (0.1 mL) were taken at 0, 1, 5, 10, 30, 120, 360 and 1440 min and treated with 20 μL of trichloroacetic acid (15% (v/v) in water). The suspension was centrifuged for 30 min at 4 °C and 13,000 rpm, and the supernatant was analyzed by HPLC as described above.

Structure (SMILES)	MIC Pseudomonas sp. [1]	MIC A. baumannii [2]	MIC E. coli (E. coli (BW25113))	IC50 (cell viability) human fibroblast 1BR3G (1BR3G human fibroblasts)	remaining at 24 h, 0.5 mM (Serum stability)	half-life at 0.5 mM (Serum stability; aliquots 0–1440 min, read-out: t1/2 in human serum)
CC[C@@H](C)[C@@H](NC(=O)CNC(=O)[C@H](NC(=O)[C@H](NC(=O)[C@H](NC(=O)[C@H]1CCCN1C(=O)[C@H](N)Cc1ccccc1)[C@H](C)CC)[C@H](C)O)C(C)C)C(=O)N[C@@H](C(=O)N[C@H](CCSC)C(=O)N1CCC[C@@H]1C(=O)N[C@H](CCCCN)C(=O)N[C@H](CCCCN)C(=O)N[C@H](Cc1ccccc1)C(=O)N[C@@H](C(=O)N[C@H](CCCCN)C(=O)N[C@H](CCCCN)C(=O)N[C@H](CC(C)C)C(=O)N[C@H](CCCNC(=N)N)C(=O)N[C@H](CCCCN)C(=O)N[C@H](CCCCN)C(=O)N[C@@H](C(=O)N[C@H](CO)C(=O)N[C@H](CCCCN)C(=O)N[C@H](CCCCN)C(=O)N[C@@H](C(=O)N[C@H](CCCCN)C(=O)N[C@H](CCCCN)C(=O)N[C@H](Cc1ccccc1)C(=O)N[C@H](Cc1ccccc1)C(=O)N[C@H](CCCCN)C(=O)N[C@H](CCCCN)C(=O)N[C@H](Cc1ccccc1)C(=O)N[C@H](CCCNC(=N)N)C(=O)N[C@H](CCCCN)C(N)=O)C(C)C)C(C)C)[C@H](C)CC)C(C)C [Ctn retroenantio] (H-[dF][dP][dI][dT][dV]G[dI][dV][dM][dP][dK][dK][dF][dI][dK][dK][dL][dR][dK][dK][dV][dS][dK][dK][dV][dK][dK][dF][dF][dK][dK][dF][dR][dK]-NH2)	0.78 µM (≈ 3.24 µg/mL)	1.56 µM (≈ 6.48 µg/mL)	0.78 µM (≈ 3.24 µg/mL)	4.3 µM	40%	
CC[C@@H](C)[C@@H](NC(=O)[C@@H](CCCCN)NC(=O)[C@@H](CCCCN)NC(=O)[C@@H](CC(C)C)NC(=O)[C@@H](CCCNC(=N)N)NC(=O)[C@@H](CCCCN)NC(=O)[C@H](N)CCCCN)C(=O)N[C@H](Cc1ccccc1)C(=O)N[C@H](CCCCN)C(=O)N[C@H](CCCCN)C(=O)N1CCC[C@@H]1C(=O)N[C@H](CCSC)C(=O)N[C@@H](C(=O)N[C@@H](C(=O)NCC(=O)N[C@@H](C(=O)N[C@@H](C(=O)N[C@@H](C(=O)N1CCC[C@@H]1C(=O)N[C@H](Cc1ccccc1)C(N)=O)[C@H](C)CC)[C@H](C)O)C(C)C)[C@H](C)CC)C(C)C [Ctn[15-34] enantio] (H-[dK][dK][dR][dL][dK][dK][dI][dF][dK][dK][dP][dM][dV][dI]G[dV][dT][dI][dP][dF]-NH2)	0.1 µM (≈ 0.237 µg/mL)	0.39 µM (≈ 0.925 µg/mL)	0.16 µM (≈ 0.379 µg/mL)			
CC[C@@H](C)[C@@H](NC(=O)[C@@H](CCCCN)NC(=O)[C@@H](CCCCN)NC(=O)[C@@H](CC(C)C)NC(=O)[C@@H](CCCNC(=N)N)NC(=O)[C@@H](CCCCN)NC(=O)[C@@H](CCCCN)NC(=O)[C@H](NC(=O)[C@@H](CO)NC(=O)[C@@H](CCCCN)NC(=O)[C@@H](CCCCN)NC(=O)[C@H](NC(=O)[C@@H](CCCCN)NC(=O)[C@@H](CCCCN)NC(=O)[C@@H](Cc1ccccc1)NC(=O)[C@@H](Cc1ccccc1)NC(=O)[C@@H](CCCCN)NC(=O)[C@@H](CCCCN)NC(=O)[C@@H](Cc1ccccc1)NC(=O)[C@@H](CCCNC(=N)N)NC(=O)[C@H](N)CCCCN)C(C)C)C(C)C)C(=O)N[C@H](Cc1ccccc1)C(=O)N[C@H](CCCCN)C(=O)N[C@H](CCCCN)C(=O)N1CCC[C@@H]1C(=O)N[C@H](CCSC)C(=O)N[C@@H](C(=O)N[C@@H](C(=O)NCC(=O)N[C@@H](C(=O)N[C@@H](C(=O)N[C@@H](C(=O)N1CCC[C@@H]1C(=O)N[C@H](Cc1ccccc1)C(N)=O)[C@H](C)CC)[C@H](C)O)C(C)C)[C@H](C)CC)C(C)C [Ctn enantio] (H-[dK][dR][dF][dK][dK][dF][dF][dK][dK][dV][dK][dK][dS][dV][dK][dK][dR][dL][dK][dK][dI][dF][dK][dK][dP][dM][dV][dI]G[dV][dT][dI][dP][dF]-NH2)	0.39 µM (≈ 1.62 µg/mL)	1.56 µM (≈ 6.48 µg/mL)	0.39 µM (≈ 1.62 µg/mL)	2.7 µM	30%	
CC[C@H](C)[C@H](NC(=O)CNC(=O)[C@@H](NC(=O)[C@@H](NC(=O)[C@@H](NC(=O)[C@@H]1CCCN1C(=O)[C@@H](N)Cc1ccccc1)[C@@H](C)CC)[C@@H](C)O)C(C)C)C(=O)N[C@H](C(=O)N[C@@H](CCSC)C(=O)N1CCC[C@H]1C(=O)N[C@@H](CCCCN)C(=O)N[C@@H](CCCCN)C(=O)N[C@@H](Cc1ccccc1)C(=O)N[C@H](C(=O)N[C@@H](CCCCN)C(=O)N[C@@H](CCCCN)C(=O)N[C@@H](CC(C)C)C(=O)N[C@@H](CCCNC(=N)N)C(=O)N[C@@H](CCCCN)C(=O)N[C@@H](CCCCN)C(N)=O)[C@@H](C)CC)C(C)C [Ctn[15-34] retro] (H-FPITVGIVMPKKFIKKLRKK-NH2)	<0.05 µM	0.78 µM (≈ 1.85 µg/mL)	0.16 µM (≈ 0.379 µg/mL)	≈ 15.84 μM		
CC[C@@H](C)[C@@H](NC(=O)CNC(=O)[C@H](NC(=O)[C@H](NC(=O)[C@H](NC(=O)[C@H]1CCCN1C(=O)[C@H](N)Cc1ccccc1)[C@H](C)CC)[C@H](C)O)C(C)C)C(=O)N[C@@H](C(=O)N[C@H](CCSC)C(=O)N1CCC[C@@H]1C(=O)N[C@H](CCCCN)C(=O)N[C@H](CCCCN)C(=O)N[C@H](Cc1ccccc1)C(=O)N[C@@H](C(=O)N[C@H](CCCCN)C(=O)N[C@H](CCCCN)C(=O)N[C@H](CC(C)C)C(=O)N[C@H](CCCNC(=N)N)C(=O)N[C@H](CCCCN)C(=O)N[C@H](CCCCN)C(N)=O)[C@H](C)CC)C(C)C [Ctn[15-34] retroenantio] (H-[dF][dP][dI][dT][dV]G[dI][dV][dM][dP][dK][dK][dF][dI][dK][dK][dL][dR][dK][dK]-NH2)	0.1 µM (≈ 0.237 µg/mL)	0.39 µM (≈ 0.925 µg/mL)	0.16 µM (≈ 0.379 µg/mL)			15.3 h
CC[C@H](C)[C@H](NC(=O)CNC(=O)[C@@H](NC(=O)[C@@H](NC(=O)[C@@H](NC(=O)[C@@H]1CCCN1C(=O)[C@@H](N)Cc1ccccc1)[C@@H](C)CC)[C@@H](C)O)C(C)C)C(=O)N[C@H](C(=O)N[C@@H](CCSC)C(=O)N1CCC[C@H]1C(=O)N[C@@H](CCCCN)C(=O)N[C@@H](CCCCN)C(=O)N[C@@H](Cc1ccccc1)C(=O)N[C@H](C(=O)N[C@@H](CCCCN)C(=O)N[C@@H](CCCCN)C(=O)N[C@@H](CC(C)C)C(=O)N[C@@H](CCCNC(=N)N)C(=O)N[C@@H](CCCCN)C(=O)N[C@@H](CCCCN)C(=O)N[C@H](C(=O)N[C@@H](CO)C(=O)N[C@@H](CCCCN)C(=O)N[C@@H](CCCCN)C(=O)N[C@H](C(=O)N[C@@H](CCCCN)C(=O)N[C@@H](CCCCN)C(=O)N[C@@H](Cc1ccccc1)C(=O)N[C@@H](Cc1ccccc1)C(=O)N[C@@H](CCCCN)C(=O)N[C@@H](CCCCN)C(=O)N[C@@H](Cc1ccccc1)C(=O)N[C@@H](CCCNC(=N)N)C(=O)N[C@@H](CCCCN)C(N)=O)C(C)C)C(C)C)[C@@H](C)CC)C(C)C [Ctn retro] (H-FPITVGIVMPKKFIKKLRKKVSKKVKKFFKKFRK-NH2)	1.56 µM (≈ 6.48 µg/mL)	1.56 µM (≈ 6.48 µg/mL)	0.78 µM (≈ 3.24 µg/mL)			
